From US20110178396A1, “Nicotinamide Derivatives” (CRC FOR BIOMEDICAL IMAGING DEVELOPMENT LTD., priority 2008, published 2011)

Experiments:
melanoma tumour = melanoma tumour bearing mice, cited from earlier work
B16F0 melanoma tumour = assay: Biodistribution in B16 melanoma bearing mice; assay type: in vivo, C57BL/6J mice; conditions: B16 melanoma bearing mice
Outline: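 B16F0 tumours in C57BL/6J mice (day 11) and A375 xenografts in BALB/c nude mice (day 25), subcutaneous left flank. Radiotracer given i.v. by tail vein (18F 0.5–1.5 MBq; 123I 0.37–0.74 MBq); n=5 per time point, 15 min–6 h (18F) or 1–72 h (123I). Organs γ-counted as % ID/g.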

CCN(CC)CCNC(=O)c1ccc([18F])cc1 [structure A]
reported tumour uptake (melanoma tumour; at 2 h): 6.5 % ID/g | Typical Tumour: Blood ratio (melanoma tumour): 12

CCN(CC)CCNC(=O)c1ccnc(F)c1 [[^18F]MEL8, 6-Fluoro-N-[2-(diethylamino)ethyl]isonicotinamide]
uptake BLOOD (B16F0 melanoma tumour; 15 min): 2.55 % ID/g | uptake BONE (B16F0 melanoma tumour; 15 min): 4.03 % ID/g | uptake BRAIN (B16F0 melanoma tumour; 15 min): 3.47 % ID/g | uptake EYES (B16F0 melanoma tumour; 15 min): 17.25 % ID/g | uptake GIT (B16F0 melanoma tumour; 15 min): 7.03 % ID/g | uptake HEART (B16F0 melanoma tumour; 15 min): 3.51 % ID/g | uptake KIDNEY (B16F0 melanoma tumour; 15 min): 19.45 % ID/g | uptake LIVER (B16F0 melanoma tumour; 15 min): 12.65 % ID/g | uptake LUNGS (B16F0 melanoma tumour; 15 min): 5.67 % ID/g | uptake MUSCLE (B16F0 melanoma tumour; 15 min): 4.16 % ID/g | uptake SKIN (B16F0 melanoma tumour; 15 min): 2.40 % ID/g | uptake SPLEEN (B16F0 melanoma tumour; 15 min): 10.27 % ID/g | uptake STOMACH (B16F0 melanoma tumour; 15 min): 13.20 % ID/g | uptake THYROID (B16F0 melanoma tumour; 15 min): 4.81 % ID/g | uptake TUMOUR (B16F0 melanoma tumour; 15 min): 6.99 % ID/g | uptake BLOOD (B16F0 melanoma tumour; 1 h): 0.77 % ID/g | uptake BONE (B16F0 melanoma tumour; 1 h): 1.52 % ID/g | uptake BRAIN (B16F0 melanoma tumour; 1 h): 1.37 % ID/g | uptake EYES (B16F0 melanoma tumour; 1 h): 23.66 % ID/g | uptake GIT (B16F0 melanoma tumour; 1 h): 2.85 % ID/g | uptake HEART (B16F0 melanoma tumour; 1 h): 1.14 % ID/g | uptake KIDNEY (B16F0 melanoma tumour; 1 h): 4.75 % ID/g | uptake LIVER (B16F0 melanoma tumour; 1 h): 3.19 % ID/g | uptake LUNGS (B16F0 melanoma tumour; 1 h): 1.81 % ID/g | uptake MUSCLE (B16F0 melanoma tumour; 1 h): 1.27 % ID/g | uptake SKIN (B16F0 melanoma tumour; 1 h): 0.88 % ID/g | uptake SPLEEN (B16F0 melanoma tumour; 1 h): 3.19 % ID/g | uptake STOMACH (B16F0 melanoma tumour; 1 h): 5.25 % ID/g | uptake THYROID (B16F0 melanoma tumour; 1 h): 2.22 % ID/g | uptake TUMOUR (B16F0 melanoma tumour; 1 h): 12.22 % ID/g | uptake BLOOD (B16F0 melanoma tumour; 3 h): 0.12 % ID/g | uptake BONE (B16F0 melanoma tumour; 3 h): 0.77 % ID/g | uptake BRAIN (B16F0 melanoma tumour; 3 h): 0.19 % ID/g | uptake EYES (B16F0 melanoma tumour; 3 h): 18.81 % ID/g | uptake GIT (B16F0 melanoma tumour; 3 h): 0.72 % ID/g | uptake HEART (B16F0 melanoma tumour; 3 h): 0.33 % ID/g | uptake KIDNEY (B16F0 melanoma tumour; 3 h): 0.45 % ID/g | uptake LIVER (B16F0 melanoma tumour; 3 h): 0.42 % ID/g | uptake LUNGS (B16F0 melanoma tumour; 3 h): 0.37 % ID/g | uptake MUSCLE (B16F0 melanoma tumour; 3 h): 0.28 % ID/g | uptake SKIN (B16F0 melanoma tumour; 3 h): 0.15 % ID/g | uptake SPLEEN (B16F0 melanoma tumour; 3 h): 2.32 % ID/g | uptake STOMACH (B16F0 melanoma tumour; 3 h): 0.82 % ID/g | uptake THYROID (B16F0 melanoma tumour; 3 h): 1.48 % ID/g | uptake TUMOUR (B16F0 melanoma tumour; 3 h): 8.80 % ID/g | uptake BLOOD (B16F0 melanoma tumour; 6 h): 0.06 % ID/g | uptake BONE (B16F0 melanoma tumour; 6 h): 0.43 % ID/g | uptake BRAIN (B16F0 melanoma tumour; 6 h): 0.07 % ID/g | uptake EYES (B16F0 melanoma tumour; 6 h): 16.49 % ID/g | uptake GIT (B16F0 melanoma tumour; 6 h): 0.23 % ID/g | uptake HEART (B16F0 melanoma tumour; 6 h): 0.17 % ID/g | uptake KIDNEY (B16F0 melanoma tumour; 6 h): 0.25 % ID/g | uptake LIVER (B16F0 melanoma tumour; 6 h): 0.60 % ID/g | uptake LUNGS (B16F0 melanoma tumour; 6 h): 0.14 % ID/g | uptake MUSCLE (B16F0 melanoma tumour; 6 h): 0.17 % ID/g | uptake SKIN (B16F0 melanoma tumour; 6 h): 0.29 % ID/g | uptake SPLEEN (B16F0 melanoma tumour; 6 h): 1.31 % ID/g | uptake STOMACH (B16F0 melanoma tumour; 6 h): 0.30 % ID/g | uptake THYROID (B16F0 melanoma tumour; 6 h): 1.02 % ID/g | uptake TUMOUR (B16F0 melanoma tumour; 6 h): 7.20 % ID/g
